Values of other authors, collected in patent US6534285B1 (priority 1984, dated 2003).

Target: AIDS reverse transcriptase (Human immunodeficiency virus type 1 group M subtype B, UniProt P04585)
Conditions: reference 53

With `Cc1ccc(C(=O)Nc2ccc(S(=O)(=O)O)c3cc(S(=O)(=O)O)cc(S(=O)(=O)O)c23)cc1NC(=O)c1cccc(NC(=O)Nc2cccc(C(=O)Nc3cc(C(=O)Nc4ccc(S(=O)(=O)O)c5cc(S(=O)(=O)O)cc(S(=O)(=O)O)c45)ccc3C)c2)c1` [Suramin] as the compound, how does the “inhibition of AIDS reverse transcriptase” value read?
Its value is “known inhibitor”.
